In PMC8379219 (Nature Communications, 2021):
Values joined by “and” are separate entries in the source; they are usually repeats but may differ in a detail not shown here. Identical values can stand only once. Like-named read-outs stand apart in the source and are kept apart here.

Assays:
SERT = molecular target: T1, SERT (Homo sapiens, UniProt P31645); test: [3H]S-CIT dissociation from SERT by VLZ in absence or presence of 10 µM Fab fragment; type: binding; details: w. Fab fragment, ctrl 0.9993
T1 construct: expressed in transfected cells; host or cells: membranes of COS-7 cells, transient transfection

SERT Y95F = SERT Y95F (Homo sapiens, UniProt P31645, Y95F)
SERT WT [1] = molecular target: T2, SERT WT (Homo sapiens, UniProt P31645)
SERT WT [2] = molecular target: T2, SERT WT; test: [3H]IMI dissociation rate assay (allosteric potency), COS-7 membranes;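 as to all read-outs here: radioligand pre-bound 30 min at room temperature to equilibrium, then dissociation followed over 5–70 min, ended by filtration through GF/B filters, at least three independent experiments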; type: binding; design: expressed in transfected cells; host or cells: COS-7; details: for VLZ Allosteric Potency SERT WT, [3H]IMI dissociation (Fig. 2C): ctrl = 1, replicates

Sequence of SERT Y95F (P31645 whole entry Y95F): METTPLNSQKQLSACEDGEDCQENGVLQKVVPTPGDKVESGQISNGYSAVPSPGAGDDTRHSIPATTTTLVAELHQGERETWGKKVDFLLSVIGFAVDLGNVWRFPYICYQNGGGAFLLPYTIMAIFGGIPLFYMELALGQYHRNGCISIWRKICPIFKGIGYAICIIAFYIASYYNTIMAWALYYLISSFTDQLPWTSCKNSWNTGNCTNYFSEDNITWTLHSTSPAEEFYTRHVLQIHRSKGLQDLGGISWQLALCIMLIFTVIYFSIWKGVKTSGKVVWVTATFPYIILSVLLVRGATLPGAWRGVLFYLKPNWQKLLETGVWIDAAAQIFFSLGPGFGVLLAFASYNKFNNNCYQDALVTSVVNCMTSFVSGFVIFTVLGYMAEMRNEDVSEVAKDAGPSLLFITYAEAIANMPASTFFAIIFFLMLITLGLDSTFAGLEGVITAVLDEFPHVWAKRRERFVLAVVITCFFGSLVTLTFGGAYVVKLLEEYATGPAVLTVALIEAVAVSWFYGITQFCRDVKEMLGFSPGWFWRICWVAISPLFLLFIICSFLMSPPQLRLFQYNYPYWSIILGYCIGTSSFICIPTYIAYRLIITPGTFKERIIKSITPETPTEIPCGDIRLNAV
T1 sequence (P31645 whole entry, the tested form may be a part): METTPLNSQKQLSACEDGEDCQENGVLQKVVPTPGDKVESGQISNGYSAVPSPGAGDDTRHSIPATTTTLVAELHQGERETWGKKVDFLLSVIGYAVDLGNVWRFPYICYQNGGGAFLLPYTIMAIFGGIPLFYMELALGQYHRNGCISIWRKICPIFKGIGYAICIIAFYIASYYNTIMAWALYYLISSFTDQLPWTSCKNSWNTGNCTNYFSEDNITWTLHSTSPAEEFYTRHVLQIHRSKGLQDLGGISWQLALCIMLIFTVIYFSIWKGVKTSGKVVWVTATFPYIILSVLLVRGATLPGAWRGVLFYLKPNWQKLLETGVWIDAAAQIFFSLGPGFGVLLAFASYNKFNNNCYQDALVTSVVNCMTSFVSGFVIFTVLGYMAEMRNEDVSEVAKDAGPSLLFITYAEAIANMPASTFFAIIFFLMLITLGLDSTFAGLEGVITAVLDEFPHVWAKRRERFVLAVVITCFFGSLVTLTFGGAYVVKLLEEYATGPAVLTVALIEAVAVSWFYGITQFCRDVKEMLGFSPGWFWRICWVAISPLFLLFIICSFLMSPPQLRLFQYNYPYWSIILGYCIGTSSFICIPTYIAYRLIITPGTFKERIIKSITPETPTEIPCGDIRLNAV
T2 sequence (P31645 whole entry): as the sequence (P31645 whole entry, the tested form may be a part) above

SMILES: N#Cc1ccc2[nH]cc(CCCCN3CCN(c4ccc5oc(C(N)=O)cc5c4)CC3)c2c1 [VLZ, Vilazodone]
- Fab fragment VLZ allostery w [3H]S-CIT Dissoc (Suppl. Fig 3B) (SERT; Log[VLZ] (M) -6.046): 0.2288
- Fab fragment VLZ allostery w [3H]S-CIT Dissoc (Suppl. Fig 3B) (SERT; Log[VLZ] (M) -6.523): 0.3777
- Fab fragment VLZ allostery w [3H]S-CIT Dissoc (Suppl. Fig 3B) (SERT; Log[VLZ] (M) -7): 0.7313
- [3H]5-HT uptake inhibition S1 Mutants (SERT Y95F; Log[VLZ] (M) -7.5): 2.147 and 2.505 and 1.589 and 2.318
- [3H]5-HT uptake inhibition S1 Mutants (SERT Y95F; Log[VLZ] (M) -8): 11.0058 and 6.5 and 7.569
- [3H]5-HT uptake inhibition S1 Mutants (SERT Y95F; Log[VLZ] (M) -8.5): 23.4424 and 34.8885 and 39.8853 and 24.3563
- [3H]5-HT uptake inhibition S1 Mutants (SERT Y95F; Log[VLZ] (M) -9): 48.3194 and 75.9314 and 68.9865 and 51.2725
- [3H]5-HT uptake inhibition S1 Mutants (SERT Y95F; Log[VLZ] (M) -9.5): 92.5116 and 89.0566
- [3H]5-HT uptake inhibition S1 Mutants (SERT Y95F; Log[VLZ] (M) -10): 97.9526 and 106.373 and 93.3855 and 88.0755
- [3H]5-HT uptake inhibition S1 Mutants (SERT Y95F; Log[VLZ] (M) -10.5): 100.1 and 92.5093 and 97.0473 and 106.269
- [3H]5-HT uptake inhibition S1 Mutants (SERT Y95F; Log[VLZ] (M) -11): 98.0826 and 93.7606
- [3H]5-HT uptake inhibition S1 Mutants (SERT Y95F; Log[VLZ] (M) -12): 96.3138 and 97.3606 and 96.312 and 100.229
- Hill slope for inhibition of [3H]5-HT uptake (SERT WT [1]): ~ 2
- [3H]5-HT uptake inhibition (SERT WT [1]; Log[VLZ] (M) -7.5): 2.2056 and 2.462 and 3.034 and 2.528
- [3H]5-HT uptake inhibition (SERT WT [1]; Log[VLZ] (M) -9.5): 92.7238
- [3H]5-HT uptake inhibition (SERT WT [1]; Log[VLZ] (M) -10): 95.9437
- [3H]5-HT uptake inhibition (SERT WT [1]; Log[VLZ] (M) -10.5): 103.235
- [3H]5-HT uptake inhibition (SERT WT [1]; Log[VLZ] (M) -11): 103.321 and 85.9044
- [3H]IMI dissociation (Fig. 2B) (SERT WT [2]; 0.5 nM, time 5 min): 98.1806
- [3H]IMI dissociation (Fig. 2B) (SERT WT [2]; 0.5 nM, time 10 min): 95.2605
- [3H]IMI dissociation (Fig. 2B) (SERT WT [2]; 0.5 nM, time 15 min): 95.3158
- [3H]IMI dissociation (Fig. 2B) (SERT WT [2]; 0.5 nM, time 20 min): 91.8569
- [3H]IMI dissociation (Fig. 2B) (SERT WT [2]; 0.5 nM, time 30 min): 86.7456
- [3H]IMI dissociation (Fig. 2B) (SERT WT [2]; 0.5 nM, time 50 min): 81.092
- [3H]IMI dissociation (Fig. 2B) (SERT WT [2]; 0.5 nM, time 70 min): 71.6978
- [3H]IMI dissociation (Fig. 2B) (SERT WT [2]; 1.6 nM, time 5 min): 98.6368
- [3H]IMI dissociation (Fig. 2B) (SERT WT [2]; 1.6 nM, time 10 min): 97.1109
- [3H]IMI dissociation (Fig. 2B) (SERT WT [2]; 1.6 nM, time 15 min): 94.6142
- [3H]IMI dissociation (Fig. 2B) (SERT WT [2]; 1.6 nM, time 20 min): 91.8363
- [3H]IMI dissociation (Fig. 2B) (SERT WT [2]; 1.6 nM, time 30 min): 88.3693
- [3H]IMI dissociation (Fig. 2B) (SERT WT [2]; 1.6 nM, time 50 min): 82.8483
- [3H]IMI dissociation (Fig. 2B) (SERT WT [2]; 1.6 nM, time 70 min): 74.8875
- [3H]IMI dissociation (Fig. 2B) (SERT WT [2]; 5.0 nM, time 5 min): 97.5709
- [3H]IMI dissociation (Fig. 2B) (SERT WT [2]; 5.0 nM, time 10 min): 97.4425
- [3H]IMI dissociation (Fig. 2B) (SERT WT [2]; 5.0 nM, time 20 min): 93.3593
- [3H]IMI dissociation (Fig. 2B) (SERT WT [2]; 5.0 nM, time 30 min): 90.4506
- [3H]IMI dissociation (Fig. 2B) (SERT WT [2]; 5.0 nM, time 50 min): 84.3631
- [3H]IMI dissociation (Fig. 2B) (SERT WT [2]; 5.0 nM, time 70 min): 76.3943
- [3H]IMI dissociation (Fig. 2B) (SERT WT [2]; 14 nM, time 5 min): 98.3663
- [3H]IMI dissociation (Fig. 2B) (SERT WT [2]; 14 nM, time 10 min): 97.4617
- [3H]IMI dissociation (Fig. 2B) (SERT WT [2]; 14 nM, time 15 min): 95.8874
- [3H]IMI dissociation (Fig. 2B) (SERT WT [2]; 14 nM, time 20 min): 96.0081
- [3H]IMI dissociation (Fig. 2B) (SERT WT [2]; 14 nM, time 30 min): 92.2894
- [3H]IMI dissociation (Fig. 2B) (SERT WT [2]; 14 nM, time 50 min): 89.4282
- [3H]IMI dissociation (Fig. 2B) (SERT WT [2]; 14 nM, time 70 min): 81.9514
- [3H]IMI dissociation (Fig. 2B) (SERT WT [2]; 41 nM, time 5 min): 97.9849
- [3H]IMI dissociation (Fig. 2B) (SERT WT [2]; 41 nM, time 10 min): 98.4954
- [3H]IMI dissociation (Fig. 2B) (SERT WT [2]; 41 nM, time 15 min): 97.2116
- [3H]IMI dissociation (Fig. 2B) (SERT WT [2]; 41 nM, time 20 min): 97.5521
- [3H]IMI dissociation (Fig. 2B) (SERT WT [2]; 41 nM, time 30 min): 96.6684
- [3H]IMI dissociation (Fig. 2B) (SERT WT [2]; 41 nM, time 50 min): 94.4925
- [3H]IMI dissociation (Fig. 2B) (SERT WT [2]; 41 nM, time 70 min): 87.7012
- VLZ Allosteric Potency SERT WT, [3H]IMI dissociation (Fig. 2C) (SERT WT [2]; Log[VLZ] (M) -4): 0
- VLZ Allosteric Potency SERT WT, [3H]IMI dissociation (Fig. 2C) (SERT WT [2]; Log[VLZ] (M) -5.9101): 0.1027 and 0.08972 and 0.1662 and 0.1172 and 0.01147
- VLZ Allosteric Potency SERT WT, [3H]IMI dissociation (Fig. 2C) (SERT WT [2]; Log[VLZ] (M) -6.38561): 0.0801 and 0.09017 and 0.06116 and 0.2108 and 0.1226 and 0.07783 and 0.1748 and 0.1023
- VLZ Allosteric Potency SERT WT, [3H]IMI dissociation (Fig. 2C) (SERT WT [2]; Log[VLZ] (M) -6.86273): 0.1665 and 0.2014 and 0.09755 and 0.4073 and 0.1925 and 0.0796 and 0.2088 and 0.1328
- VLZ Allosteric Potency SERT WT, [3H]IMI dissociation (Fig. 2C) (SERT WT [2]; Log[VLZ] (M) -7.33985): 0.3329 and 0.2727 and 0.2322 and 0.5054 and 0.3314 and 0.3281 and 0.2598 and 0.3035 and 0.2526
- VLZ Allosteric Potency SERT WT, [3H]IMI dissociation (Fig. 2C) (SERT WT [2]; Log[VLZ] (M) -7.81697): 0.6247 and 0.4843 and 0.4623 and 0.5542 and 0.4673 and 0.4013 and 0.468 and 0.4244
- VLZ Allosteric Potency SERT WT, [3H]IMI dissociation (Fig. 2C) (SERT WT [2]; Log[VLZ] (M) -8.29409): 0.894 and 0.6671 and 0.6226 and 0.8075 and 0.7294 and 0.5156 and 0.7279 and 0.5418
- VLZ Allosteric Potency SERT WT, [3H]IMI dissociation (Fig. 2C) (SERT WT [2]; Log[VLZ] (M) -8.77121): 0.9289 and 0.7744 and 0.7519 and 0.85 and 0.8487 and 0.773 and 0.7182 and 0.7591
